Measured values reported in paper PMC12624316, “Studies of α′,β′‐Epoxyketone Synthesis by Small‐Molecule Flavins and Flavoenzymes” (Angewandte Chemie (International Ed. in English), 2025).

Biological target: T1, EpxF (Goodfellowiella coeruleoviolacea, UniProt V5RNC8)
T1 construct: expressed in Escherichia coli; homodimer; residues 253-264 and 336-346 not defined in the density
T1 sequence (V5RNC8 2-563): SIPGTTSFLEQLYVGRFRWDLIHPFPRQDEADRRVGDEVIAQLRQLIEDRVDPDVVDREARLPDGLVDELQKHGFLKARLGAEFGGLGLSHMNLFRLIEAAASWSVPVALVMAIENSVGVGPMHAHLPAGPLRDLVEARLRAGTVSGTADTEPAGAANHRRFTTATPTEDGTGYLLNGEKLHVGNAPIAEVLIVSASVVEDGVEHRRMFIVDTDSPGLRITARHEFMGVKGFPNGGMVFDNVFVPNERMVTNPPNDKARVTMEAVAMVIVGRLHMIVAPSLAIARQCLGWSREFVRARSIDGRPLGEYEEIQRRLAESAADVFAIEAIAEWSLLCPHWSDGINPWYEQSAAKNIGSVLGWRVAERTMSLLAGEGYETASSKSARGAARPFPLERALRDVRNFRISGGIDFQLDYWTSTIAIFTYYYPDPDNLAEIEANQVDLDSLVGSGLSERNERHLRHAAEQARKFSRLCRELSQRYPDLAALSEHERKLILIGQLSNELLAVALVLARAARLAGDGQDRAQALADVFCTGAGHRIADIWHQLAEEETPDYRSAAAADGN
Assay: X-ray crystal structure, […] Å
Assay type: binding
Details: FAD bound in both subunits of the homodimer, adenine anchored in the dimer interface

## Cc1cc2nc3c(=O)[nH]c(=O)nc-3n(C[C@H](O)[C@H](O)[C@H](O)COP(=O)(O)OP(=O)(O)OC[C@H]3O[C@@H](n4cnc5c(N)ncnc54)[C@H](O)[C@@H]3O)c2cc1C [FAD]
  X-ray crystal structure, 2.4 Å: electron density map depicts FAD bound at two distinct catalytic centers
